Reference: publication PMC6934184, “Selective DNA-PKcs inhibition extends the therapeutic index of localized radiotherapy and chemotherapy” (The Journal of Clinical Investigation, 2019)

Target: T1, MYLK (MLCK) (Homo sapiens, UniProt Q15746)
T1 construct: purchased Thermo Fisher Scientific (Life Technologies) SelectScreen
Assay: SelectScreen LanthaScreen
Format: binding
Conditions: read-out: % displacement
In short: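 Percent values come from Thermo SelectScreen profiling of NU5455, combining activity and binding assays. CSF1R was run in Z'LYTE format at Km app ATP, and CAMK1 in Adapta format with ATP listed at 10.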

T1 sequence (Q15746 whole entry): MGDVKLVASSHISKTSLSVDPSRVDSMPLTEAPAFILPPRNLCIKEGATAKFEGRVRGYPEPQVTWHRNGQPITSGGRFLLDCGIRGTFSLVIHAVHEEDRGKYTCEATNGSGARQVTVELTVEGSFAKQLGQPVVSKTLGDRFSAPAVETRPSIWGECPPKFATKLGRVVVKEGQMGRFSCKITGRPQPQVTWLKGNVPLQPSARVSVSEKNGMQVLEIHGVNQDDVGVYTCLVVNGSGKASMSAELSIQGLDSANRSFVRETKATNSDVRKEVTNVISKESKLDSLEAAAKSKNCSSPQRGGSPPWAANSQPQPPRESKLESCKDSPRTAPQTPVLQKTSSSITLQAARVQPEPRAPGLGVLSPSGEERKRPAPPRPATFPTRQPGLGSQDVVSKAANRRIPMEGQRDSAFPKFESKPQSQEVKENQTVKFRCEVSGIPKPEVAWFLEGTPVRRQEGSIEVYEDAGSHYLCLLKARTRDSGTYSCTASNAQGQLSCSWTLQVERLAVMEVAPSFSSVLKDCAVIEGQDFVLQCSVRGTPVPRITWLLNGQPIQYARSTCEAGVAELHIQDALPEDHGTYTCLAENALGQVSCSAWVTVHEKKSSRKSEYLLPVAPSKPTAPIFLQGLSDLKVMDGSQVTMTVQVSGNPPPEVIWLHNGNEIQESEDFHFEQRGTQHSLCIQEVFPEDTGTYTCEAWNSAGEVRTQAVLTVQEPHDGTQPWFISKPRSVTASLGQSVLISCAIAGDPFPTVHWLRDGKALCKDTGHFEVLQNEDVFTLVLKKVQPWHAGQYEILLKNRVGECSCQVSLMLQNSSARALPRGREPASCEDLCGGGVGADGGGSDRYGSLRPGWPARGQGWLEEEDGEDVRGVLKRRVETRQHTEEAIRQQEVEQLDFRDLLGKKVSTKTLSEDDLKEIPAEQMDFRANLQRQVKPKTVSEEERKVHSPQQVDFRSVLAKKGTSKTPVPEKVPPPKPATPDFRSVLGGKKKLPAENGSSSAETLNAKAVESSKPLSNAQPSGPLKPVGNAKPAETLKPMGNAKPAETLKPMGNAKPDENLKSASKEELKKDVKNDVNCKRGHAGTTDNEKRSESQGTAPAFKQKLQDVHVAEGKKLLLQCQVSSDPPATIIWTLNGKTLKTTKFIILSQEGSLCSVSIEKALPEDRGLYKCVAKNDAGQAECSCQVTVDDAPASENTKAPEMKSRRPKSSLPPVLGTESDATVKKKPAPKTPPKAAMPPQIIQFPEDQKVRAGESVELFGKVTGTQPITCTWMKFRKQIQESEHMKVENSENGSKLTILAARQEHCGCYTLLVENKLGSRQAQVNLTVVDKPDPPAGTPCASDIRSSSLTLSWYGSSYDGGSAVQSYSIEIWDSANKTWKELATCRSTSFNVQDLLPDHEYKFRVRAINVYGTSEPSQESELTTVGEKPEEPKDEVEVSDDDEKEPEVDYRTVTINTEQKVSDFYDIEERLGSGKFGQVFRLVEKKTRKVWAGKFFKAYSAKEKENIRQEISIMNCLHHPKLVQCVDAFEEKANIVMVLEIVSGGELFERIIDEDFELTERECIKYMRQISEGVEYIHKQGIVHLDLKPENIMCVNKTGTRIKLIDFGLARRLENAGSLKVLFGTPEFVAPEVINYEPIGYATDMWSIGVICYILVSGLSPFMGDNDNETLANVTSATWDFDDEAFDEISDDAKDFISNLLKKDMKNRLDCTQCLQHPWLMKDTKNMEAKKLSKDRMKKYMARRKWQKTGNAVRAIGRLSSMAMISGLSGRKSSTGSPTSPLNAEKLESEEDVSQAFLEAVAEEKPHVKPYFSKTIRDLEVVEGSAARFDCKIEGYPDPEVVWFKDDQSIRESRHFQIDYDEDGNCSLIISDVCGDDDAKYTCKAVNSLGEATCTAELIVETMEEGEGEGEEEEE

SMILES: CN(C(=O)CN1CCOCC1)c1ccc2sc3c(-c4cccc5c(=O)cc(N6CC7CCC(C6)O7)oc45)cccc3c2c1 [NU5455]
- inhibition at 1 µM: 0.2%
